Read-outs that look alike come from different tables or passages of the source.
Key:
pain in a patient [1] = assay: earlier pharmaceutical treatment of Patient A's pain; assay type: in vivo, human; details: terminal prostate cancer, before use of the method
Excerpt: Patient A was a person having terminal prostate cancer. Patient A was suffering a high level of pain, for which pharmaceutical treatment, even morphine, had become ineffective.

pain in a patient [2] = tested on: pain in a patient
Experimental: In each of the examples, below, the method of the invention was used: the patient was aurally isolated in a quiet room, being the waiting room or vestibule to an operating theatre with only the deliverer present during the aural isolation period. The patient was exposed to the repetitive, positive message delivered orally by the deliverer. The chosen period was between 20 and 30 minutes. The deliverer repeated the message constantly during the chosen period. The message was: ‘When I wake up, I will have no pain’.
At the conclusion of the chosen period, the patient was administered propofol and became unconscious.

[3] = Example 5, Patient B, hip replacement

| Compound | effect of pharmaceutical treatment on high level of pain (pain in a patient [1]) | pain after surgery (pain in a patient [2]; Example 1, Patient A, terminal prostate cancer, surgery for incontinence problem, from regaining consciousness until three weeks later) | pain (pain in a patient [2]; Example 2, Patient B, bleeding on the brain, skull drilled to drain blood) | pain post-surgery (pain in a patient [2]; Example 3, Patient B, cataract surgery) | post-operative pain (pain in a patient [2]; Example 4, Patient B, radical endoscopic sinus surgery) | pain post-surgery (pain in a patient [2]; [3]) | recovery (pain in a patient [2]; [3]) | time to being ambulatory (pain in a patient [2]; Example 5, Patient B, hip replacement, 7 days bed rest normally expected) | pain after surgery (pain in a patient [2]; Example 6, Patient B, painful infection within left shoulder, surgery) | pain post-surgery (pain in a patient [2]; Example 7, Patient B, osteomyelitis in right hip, stripping of veins and skin graft) | pain post-surgery (pain in a patient [2]; Example 8, Patient B, open-heart surgery to replace aortic valve, three surgeries) | pain post-surgery (pain in a patient [2]; Example 9, Patient C, hip replacement) | pain post-surgery (pain in a patient [2]; Example 10, Patient D, radical hysterectomy) | need for pharmaceutical pain relief after use of the method (pain in a patient [2]; all patients of Examples 1-10, propofol given after 20-30 min aural isolation with message) | recovery from surgery (pain in a patient [2]; all patients of the examples, when surgery was used) |
| --- | --- | --- | --- | --- | --- | --- | --- | --- | --- | --- | --- | --- | --- | --- | --- |
| CN1CC[C@]23c4c5ccc(O)c4O[C@H]2[C@@H](O)C=C[C@H]3[C@H]1C5 [morphine] | ineffective | – | – | – | – | – | – | – | – | – | – | – | – | – | – |
| CC(C)c1cccc(C(C)C)c1O [propofol, 2,6-diisopropylphenol] | – | free of pain | experienced no pain | experienced no pain post-surgery | experienced no post-operative pain | no pain post-surgery | accelerated recovery | ambulatory within one hour | pain-free | no pain post-surgery | no pain post-surgery each time | no pain post-surgery | experienced no pain post-surgery | None of the patients in the examples below required pharmaceutical pain relief | All experienced accelerated recovery from surgery |
